From patent US20240376094A2, “SELECTIVE BCL-XL PROTAC COMPOUNDS AND METHODS OF USE” (Les Laboratoires Servier, priority 2021, published 2024)

Molecular target: T1, endogenous BCL-xL (Homo sapiens, UniProt Q07817)
T1 construct: endogenous in cells; host or cells: COR-L105 (ECACC No. 92031918); NCI-H1650 (ATCC No. CRL-5883)
Experiment: Degradation of endogenous BCL-xL in NCI-H1650 (ProteinSimple Jess)
Assay type: cell-based
Settings: NCI-H1650, dose 10 nM, 24 hours
Description: The BCL-xL degrader low molecular weight compounds were tested against two endogenous cancer cell lines: • COR-L105: ECACC No. 92031918 cultured in RPMI-1640+10% FBS • NCI-H1650: (ATCC No. CRL-5883 cultured in RPMI-1640+10% FBS
The ability of the BCL-xL degrader low molecular weight compounds to degrade endogenous BCL-xL was assessed using the ProteinSimple 2-40 kDa Jess Separation Module.
Cell lines were cultured in media that is optimal for their growth at 5% CO2, 37° C. in a tissue culture incubator. Prior to seeding for the degradation assay, the cells were split at least 2 days before the assay to ensure optimal growth density. On the day of seeding, adherent cells were lifted off tissue culture flasks using 0.25% trypsin. Cell viability and cell density were determined using a cell counter (Vi-Cell XR Cell Viability Analyzer, Beckman Coulter). Cells with higher than 85% viability were seeded for the assay.
The COR-L105 and the NCI-H1650 cell line were seeded in 6-well clear TC-treated multiple well plates (Costar® cat. #3516). Cells were seeded at a density of 2,000,000 cells per well in 2.5 mL of standard growth media. Plates were incubated at 5% CO2, 37° C. overnight in a tissue culture incubator. On the day of dosing, BCL-xL degrader low molecular weight compounds and a BCL-xL inhibitor control were prepared at 6× in standard growth media. […] A control well of untreated cells was also included in the study. Each drug concentration was tested in singlet. Plates were incubated at 5% CO2, 37° C. for 24 hours in a tissue culture incubator.
After 24 hours, the adherent cells were lifted off tissue culture plates using 0.25% trypsin. Standard growth media was added to quench the trypsin and centrifuged for 5 minutes at 1500 rpm. […]
Protein was quantified using a Pierce™ BCA Protein Assay Kit (ThermoFisher, cat #23225) following the manufacturer's instructions. […] A SpectraMax M Series Multi-Mode Microplate Reader was used to measure the absorbance at 562 nm. […] Only values that fell within the range of the standard curve were accepted for quantification. […]

T1 sequence (Q07817 whole entry): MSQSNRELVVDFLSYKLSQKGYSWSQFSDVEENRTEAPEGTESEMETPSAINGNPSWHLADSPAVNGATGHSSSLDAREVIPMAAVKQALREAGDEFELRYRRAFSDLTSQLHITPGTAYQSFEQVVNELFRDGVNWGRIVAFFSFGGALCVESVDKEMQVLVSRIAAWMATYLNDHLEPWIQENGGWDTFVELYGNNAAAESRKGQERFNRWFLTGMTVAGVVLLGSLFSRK

% BCL-xL vs. Untreated, NCI-H1650	SMILES
16.23%	Cc1ncsc1-c1ccc([C@H](C)NC(=O)[C@@H]2C[C@@H](O)CN2C(=O)[C@@H](NC(=O)CCCCCCCCCCC(=O)N2CCN(CC#Cc3ccc(OCCCc4sc(N5CCCc6c5nnc(Nc5nc7ccccc7s5)c6C)nc4C(=O)O)c(F)c3)CC2)C(C)(C)C)cc1 [Example 46, 2-(3-(benzo[d]thiazol-2-ylamino)-4-methyl-6,7-dihydropyrido [2,3-c]pyridazin-8(5H)-yl)-5-(3-(2-fluoro-4-(3-(4-(12-(((S)-1-((2S,4R)-4-hydroxy-2-(((S)-1-(4-(4-methylthiazol-5-yl)phenyl)ethyl)carbamoyl)pyrrolidin-1-yl)-3,3-dimethyl-1-oxobutan-2-yl)amino)-12-oxododecanoyl)piperazin-1-yl)prop-1-yn-1-yl)phenoxy)propyl)thiazole-4-carboxylic acid]
1.05%	Cc1ncsc1-c1ccc(CNC(=O)[C@@H]2C[C@@H](O)CN2C(=O)[C@@H](NC(=O)CCCCCCCCCCC(=O)N2CCN(CC#Cc3ccc(OCCCc4sc(N5CCCc6c5nnc(Nc5nc7ccccc7s5)c6C)nc4C(=O)O)c(F)c3)CC2)C(C)(C)C)cc1 [Example 48, 2-(3-(benzo[d]thiazol-2-ylamino)-4-methyl-6,7-dihydropyrido [2,3-c]pyridazin-8(5H)-yl)-5-(3-(2-fluoro-4-(3-(4-(12-(((S)-1-((2S,4R)-4-hydroxy-2-((4-(4-methylthiazol-5-yl)benzyl)carbamoyl)pyrrolidin-1-yl)-3,3-dimethyl-1-oxobutan-2-yl)amino)-12-oxododecanoyl)piperazin-1-yl)prop-1-yn-1-yl)phenoxy)propyl)thiazole-4-carboxylic acid]
9.22%	Cc1ncsc1-c1ccc([C@H](C)NC(=O)[C@@H]2C[C@@H](O)CN2C(=O)[C@@H](NC(=O)CCCCCCCCCCCN2CCN(CC#Cc3ccc(OCCCc4sc(N5CCCc6c5nnc(Nc5nc7ccccc7s5)c6C)nc4C(=O)O)c(F)c3)CC2)C(C)(C)C)cc1 [Example 51, 2-(3-(benzo[d]thiazol-2-ylamino)-4-methyl-6,7-dihydropyrido [2,3-c]pyridazin-8(5H)-yl)-5-(3-(2-fluoro-4-(3-(4-(12-(((S)-1-((2S,4R)-4-hydroxy-2-(((S)-1-(4-(4-methylthiazol-5-yl)phenyl)ethyl)carbamoyl)pyrrolidin-1-yl)-3,3-dimethyl-1-oxobutan-2-yl)amino)-12-oxododecyl)piperazin-1-yl)prop-1-yn-1-yl)phenoxy)propyl)thiazole-4-carboxylic acid]
